According to US20250177366A1, “COMPOSITIONS AND METHODS FOR ALLEVIATING PAIN AND REDUCING ADVERSIVENESS OF STIMULI” (UNIVERSITY OF WASHINGTON, priority 2021, published 2025):

Tested on: neuronal activity marker phosphorylated-ERK (pERK)
Assay: Whole brain activity profiling, pERK/tERK immunolabeling and MAP-mapping
Assay type: in vivo, Zebrafish (Danio rerio)
Experimental: To investigate how AS1 might alter central nervous system activity in the presence of nociceptive stimuli, whole brain activity profiling with the neuronal activity marker phosphorylated-ERK (pERK) was performed. Briefly, 6 dpf larval zebrafish were exposed to noxious heat (37.5° C.) or rearing temperature (28.5° C.) in the presence of vehicle or AS1 (either 2.5 or 5 μM) for 15 minutes. Immunolabeling was then performed to detect both total ERK (tERK) and phosphorylated ERK (pERK) (FIG. 8). Volumetric z-stacks of the entire brain of each fish were taken upon a confocal microscope, registered to a reference brain, and smoothed using an ImageJ script. […] Brains from each experimental condition (AS1+28.5° C., Vehicle+37.5° C., and AS1+37.5° C.) with Vehicle+28.5° C. were initially compared to determine how activity under these experimental conditions differed from the baseline state, then the total change in signal in each brain region were subtracted for AS1+28.5° C. and Vehicle+37.5° C. treated fish from AS1+37.5° C. treated fish. This was done to look for brain regions specifically activated in the presence of the noxious stimulus and AS1, reasoning that these areas would drive attraction to noxious stimuli.
pERK Immunolabeling. […]

Structure (SMILES): CC(C)c1ccc(C(=O)Nc2ccncc2)cc1 [AS1, 4-propan-2-yl-N-pyridin-4-ylbenzamide]
- share of the top 25 most active regions that are subpallial/dopaminergic populations (AS1 + noxious heat (37.5° C.)): 64%
- brain regions recruited by AS1 alone (AS1-treated fish not exposed to noxious heat (28.5° C.)): primarily recruited neuron clusters within the mesencephalon and rhombencephalon
